Measurements: publication PMC8508960, “Ruthenium Half-Sandwich Type Complexes with Bidentate Monosaccharide Ligands Show Antineoplastic Activity in Ovarian Cancer Cell Models through Reactive Oxygen Species Production” (International Journal of Molecular Sciences, 2021)
Where “and” joins values, the source holds several entries; their conditions need not be identical. Equal values may be shown once. Entries after “also recorded” stand apart in the source; their conditions may differ.

Assays:
ID8 cells [1] = assay: SRB proliferation assay (48 h) on ID8 cells; format: cell-based; conditions: for cytostatic activity in long-term SRB assay (in words): ID8 cells; for IC50 / ID8 Hill Slope: SRB, nonlinear regression, N/A = could not be calculated/had no effect
Experimental: (§1) Cells were cultured under standard cell culture conditions, 37 °C, 5% CO2, humidified atmosphere. A2780 cells were cultured in RMPI 1640 medium supplemented with 10% fetal calf serum, 2 mM glutamine, and 1% penicillin–streptomycin (Sigma-Aldrich). ID8 cells were cultured in high-glucose DMEM (4.5 g/L glucose) supplemented with 4% fetal calf serum, 2 mM glutamine, 1% penicillin–streptomycin (Sigma-Aldrich), and 1% ITS supplement (Sigma-Aldrich I3146). U251 cells were maintained in MEM (Sigma-Aldrich), 10% fetal bovine serum (Sigma-Aldrich), 1% penicillin/streptomycin (Invitrogene), and 2 mM glutamine. MCF7 cells were maintained in MEM (Sigma-Aldrich), 10% fetal bovine serum (Sigma-Aldrich), 1% penicillin/streptomycin (Invitrogen, Waltham, MA, USA), and 2 mM glutamine. Capan2 cells were maintained in MEM (Sigma-Aldrich), 10% fetal bovine serum (Sigma-Aldrich), 1% penicillin/streptomycin (Invitrogen), and 2 mM glutamine. Human primary dermal fibroblasts were cultured in low-glucose DMEM (1 g/L glucose) supplemented with 20% fetal calf serum, 2 mM glutamine, and 1% penicillin–streptomycin (Sigma-Aldrich).
(§2) The SRB accumulation assay assesses protein content in a sample, and it was used to assess cell proliferation. The SRB accumulation assay was performed similarly to [68]. Cells were seeded in 96-well plates. The next day, cells were treated with the compounds for 48 h in the concentrations indicated in a cell incubator. At the end of treatment, cells were fixed with 10% trichloroacetic acid (TCA). Fixed cells were stained with SRB (0.4% m/v dissolved in 1% acetic acid) for 60 min. Fixed cells were washed in 1% acetic acid three times; acetic acid was removed, and cells were left to dry. Protein-bound SRB was released by adding 100 µL of 10 mM Tris base. Plates were measured in a plate photometer (Thermo Scientific Multiscan GO spectrophotometer, Waltham, MA, USA) at 540 nm. On each plate, wells were designed to contain untreated cells. In calculations, the readings for these wells were considered as 1, and all readings were expressed relative to these values.
(§3) Statistical analysis was performed using Graphpad Prism version 8.0.1. Values were tested for normal distribution using the D’Agostino and Pearson normality test. When necessary, values were log-normalized or were normalized using the Box–Cox normalization method, as indicated in the figure captions. Nonlinear regression was performed using the built-in “[Inhibitor] vs. response—variable slope (four parameters), least square fit” utility of Graphpad that yielded IC50 and Hill slope values.

[2] = Determination of the distribution coefficients (logD), n-octanol/PBS; format: physicochemical; conditions: n-octanol / PBS pH = 7.40
Experimental: Prior to the experiments, n-octanol was saturated with aqueous PBS solution (pH = 7.40) and vice versa. The corresponding complex (approximately 0.2–0.3 mg) was dissolved in a mixture of 2.50 mL of pre-saturated n-octanol and 2.50 mL of pre-saturated PBS buffer, and the mixture was vigorously stirred for 3 days. According to the NMR stability measurements, this time was necessary to reach equilibrium between the various ionic complex species. Due to the lipophilic/hydrophilic character of the complexes, those with benzoyl protection or the non-sugar derivative could mostly be found in the n-octanol, while the acetyl and non-protected complexes could be found in the aqueous PBS phase. The appropriate separated solution was centrifuged (ScanSpeed 406G instrument, 4000 RPM for 5 min), and the absorption of the “stock solution” was measured (VWR UV-1600PC Spectrophotometer, 270–420 nm). Then 2.00 mL of stock solution was stirred vigorously with 16.00 mL of pre-saturated, clean n-octanol or PBS solution. After 1 day, the phases were separated and centrifuged, and the absorption of the solution was measured again. From the absorption difference of the stock solutions, the distribution coefficient (D) was calculated according to the previously described formulae [66].

A2780 cells [3] = assay: SRB assay on A2780 cells with or without 3 µM rucaparib; format: cell-based, human; conditions: 48 h, vehicle (no rucaparib)
Experimental: as §2, §3

[4] = system: MCF7 cells (breast cancer); assay: SRB proliferation assay (48 h) on MCF7 cells; format: cell-based; conditions: nonlinear regression
Experimental: as §1, §2, §3

[5] = system: U251 cells (glioblastoma model); assay: SRB proliferation assay (48 h) on U251 cells; format: cell-based; conditions: nonlinear regression
Experimental: as §1, §2, §3

[6] = system: human primary skin fibroblasts; assay: SRB proliferation assay (48 h) on primary fibroblasts; format: cell-based; conditions: for effect on SRB signal at 100 µM / effect in long-term SRB assay (in words): primary human fibroblasts
Experimental: as §1, §2, §3

A2780 cells [7] = assay: Western blotting of 4-hydroxy-nonenal (4HNE), oxidative stress marker; format: cell-based, human; conditions: concentration corresponding to IC50, 48 h
Experimental: The preparation of protein extracts, the separation of protein extracts in SDS-polyacrylamide gel electrophoresis, and the subsequent Western blotting were performed as described in [70] using the antibodies in Table 4. Enhanced chemiluminescence was developed using ChemiDoc Imager, (Bio-Rad, Hercules, CA, USA). Densitometry was performed using Image Lab Touch Software, Bio-Rad, Hercules, CA, USA).

ID8 cells [8] = assay: MTT reduction assay (4 h, rapid toxicity) on ID8 cells; format: cell-based; conditions: for effect on MTT signal above 10 µM: above 10 µM concentration
Experimental: as §1
(§4) The MTT reduction assay assesses the activity of mitochondrial complex I, and it was used to assess rapid toxicity. The MTT reduction assay was performed similarly to [67]. Cells were seeded in 96-well plates. The next day, cells were treated with the compounds for 4 h in the concentrations indicated in a cell incubator. At the end of treatment, MTT was added in 0.5 mg/mL final concentration, and cells were incubated at 37 °C in a cell incubator. Then, culture media was removed, the reduced MTT dye was resolved in dimethyl sulfoxide (DMSO), and plates were measured in a plate photometer (Thermo Scientific Multiscan GO spectrophotometer, Waltham, MA, USA) at 540 nm. On each plate, wells were designed to contain untreated/vehicle-treated cells. In calculations, the readings for these wells were considered as 1, and all readings were expressed relative to these values.

[9] = system: A2780 human ovarian carcinoma cells; assay: SRB proliferation assay (48 h) on A2780 cells; format: cell-based; conditions: for cytostatic activity in long-term SRB assay (in words): A2780 cells, 100–0.0017 µM; for Hill slope (span over cell lines): SRB curves, A2780 and ID8 cells; for A2780 Hill Slope / IC50: SRB, nonlinear regression, N/A = could not be calculated/had no effect
Experimental: as §1, §2, §3

A2780 cells [10] = assay: Annexin V-FITC, PI double staining (flow cytometry); format: cell-based, human; conditions: concentration corresponding to IC50, 2 h, 4 h or 48 h
Experimental: Annexin V–PI double staining was applied to assess apoptotic and necrotic cell death similar to [37, 38, 69]. A2780 cells were treated with the indicated compounds at the concentration corresponding to their IC50 value for 2, 4, and 48 h. The 4 and 48 h time points correspond to the time points for the MTT and SRB assays, while the 2 h time point reflects the optimum time point for the detection of apoptotic or necrotic cell death. Quadrants were set on the basis of the FITC and PI values observed for the vehicle-treated cells.

A2780 cells [11] = assay: SRB assay on A2780 cells with antioxidant cotreatment (GSH, NAC, MitoTEMPO, vitamin E, Trolox); format: cell-based, human; conditions: 48 h
Experimental: as §2

[12] = system: human primary skin fibroblasts; assay: MTT reduction assay (4 h, rapid toxicity) on primary fibroblasts; format: cell-based
Experimental: as §1, §4

[13] = system: Capan2 (pancreatic adenocarcinoma); assay: SRB proliferation assay (48 h) on Capan2 cells; format: cell-based; conditions: nonlinear regression
Experimental: as §1, §2, §3

[14] = system: A2780 human ovarian carcinoma cells; assay: MTT reduction assay (4 h, rapid toxicity) on A2780 cells; format: cell-based; conditions: for effect on MTT signal above 10 µM: above 10 µM concentration
Experimental: as §1, §4

[15] = SRB, nonlinear regression, N/A = could not be calculated/had no effect

logD [2] | IC50 (A2780 cells [3]) [µM] | IC50 [4] [µM] | IC50 [5] [µM] | IC50 [9] [µM] | IC50 [13] [µM] | Structure (SMILES) | cytostatic activity in long-term SRB assay (in words) (ID8 cells [1]) | IC50 (ID8 cells [1]) | ID8 Hill Slope (ID8 cells [1]) | MCF7 Hill Slope [4] | U251 Hill Slope [5] | expression of oxidative stress marker 4-hydroxy-nonenal (4HNE) (A2780 cells [7]) | cytostatic activity in long-term SRB assay (in words) [9] | Hill slope (span over cell lines) [9] | A2780 Hill Slope [9] | proportions of PI-positive, annexin V-positive and double-positive cells (A2780 cells [10]) | effect of GSH and NAC cotreatment on the cytostatic effects of the complex (A2780 cells [11]) | effect of MitoTEMPO on the cytostatic effects of the complex (A2780 cells [11]) | effect in short-term MTT assay, rapid toxicity (in words) [12] | Capan2 Hill Slope [13] | also measured
2.85 | 1.38 | 1.29 | 2.82 | 0.9 | 2.18 | Cc1ccc(C(C)C)cc1.F[P-](F)(F)(F)(F)F.O=C(OCC1OC(n2cc(-c3ccccn3)nn2)C(OC(=O)c2ccccc2)C(OC(=O)c2ccccc2)C1OC(=O)c1ccccc1)c1ccccc1.[Cl][Ru+] (mixture of isomers) [Ru-2a] | cytostatic | 1.5 µM and 1.53 µM | 2.50 | 1.85 | 1.75 | increase in the expression | cytostatic properties | 2–3 | 1.95 | did not largely increase | attenuated the cytostatic effects | did not modulate the effects | no effect | 2.43 | Fibroblast Hill Slope [6, 15]: 0.78; effect on SRB signal at 100 µM [6]: reduced the SRB signal; effect on MTT signal above 10 µM (ID8 cells [8]): reduced the MTT signal; effect in short-term MTT assay, rapid toxicity (in words) [14]: cytostatic properties; effect on MTT signal above 10 µM [14]: reduced the MTT signal
2.41 | 6.18 | 3.74 | 4.17 | 6.19 | 3.27 | Cc1ccc(C(C)C)cc1.F[P-](F)(F)(F)(F)F.O=C(OCC1OC(c2n[n+]3c(o2)-c2cccc[n+]2[Ru-]3[Cl])C(OC(=O)c2ccccc2)C(OC(=O)c2ccccc2)C1OC(=O)c1ccccc1)c1ccccc1 (mixture of isomers) [Ru-4] | cytostatic | 5.66 µM | 3.04 | 2.01 | 2.46 | increase in the expression | cytostatic properties | 2–3 | 2.62 | did not largely increase | attenuated the cytostatic effects | did not modulate the effects | no effect | 1.81 | effect in long-term SRB assay (in words) [6]: no effect; also recorded: no activity; effect in short-term MTT assay, rapid toxicity (in words) [14]: cytostatic properties
2.04 | 6.83 | 6.69 | 6.61 | 8.54 | 4.97 | Cc1ccc(C(C)C)cc1.F[P-](F)(F)(F)(F)F.O=C(OC1COC(c2n[n+]3c(o2)-c2cccc[n+]2[Ru-]3[Cl])C(OC(=O)c2ccccc2)C1OC(=O)c1ccccc1)c1ccccc1 (mixture of isomers) [Ru-6] | cytostatic | 6.76 µM | 3.59 | 2.13 | 2.13 | increase in the expression | cytostatic properties | 2–3 | 3.74 | did not largely increase | attenuated the cytostatic effects | did not modulate the effects | no effect | 1.66 | Fibroblast Hill Slope [6, 15]: 3.52; IC50 ([6]; SRB, nonlinear regression, N/A = could not be calculated/had no effect, read-out: Fibroblast IC50): 24.6 µM; effect on SRB signal at 100 µM [6]: reduced the SRB signal; effect on MTT signal at 100 µM (ID8 cells [8]; 100 µM, Ru-4: not statistically significant): reduced the MTT signal; effect in short-term MTT assay, rapid toxicity (in words) [14]: cytostatic properties
2.44 | 4.17 | 3.75 | 4.49 | 4.27 | 3.82 | Cc1ccc(C(C)C)cc1.F[P-](F)(F)(F)(F)F.O=C(OCC1OC(c2nnc(-c3ccccn3)o2)C(OC(=O)c2ccccc2)C(OC(=O)c2ccccc2)C1OC(=O)c1ccccc1)c1ccccc1.[Cl][Ru+] (mixture of isomers) [Ru-8] | cytostatic | 7.94 µM | 3.31 | 2.06 | 2.50 | increase in the expression | cytostatic properties | 2–3 | 3.50 | did not largely increase | attenuated the cytostatic effects | did not modulate the effects | no effect | 1.66 | effect in long-term SRB assay (in words) [6]: no effect; effect on MTT signal above 10 µM (ID8 cells [8]): reduced the MTT signal; effect in short-term MTT assay, rapid toxicity (in words) [14]: cytostatic properties; effect on MTT signal above 10 µM [14]: reduced the MTT signal
